Test [1] relates to MDCK cells. As to the kind of experiment: Inhibition of T4 phage transcytosis across MDCK monolayers by chemical inhibitors. In kind it is cell-based, canine. As to conditions: for Inhibitor transcytosis Median ± s.d.: T4 phages across MDCK pretreated 18 hrs: Brefeldin A 5 μgmL^−1, Wortmannin 100 nM, Bafilomycin 0.5 μM, Chloroquine 100 μM, W-7 100 μM, solvent 7.9 ± 3 × 10^4; for effect of inhibitor on phage transcytosis: T4 phages across inhibitor-treated MDCK cells vs solvent control. As for the experimental part: All cells were seeded at a density of 0.5-1×10^6 cells per well and allowed to grow to confluency (3-5 days). For apical-to-basal transcytosis the apical wells were incubated in Hanks Buffered Salt Solution (HBSS) at pH 6.0 and basal cells in HBSS at pH 7.4 for two hours to mimic pH-dependent uptake (2). For basal-to-apical transcytosis the buffers were switched. Bacteriophages were applied with the HBBS pH 6.0 buffer, incubated with cells for two hours and phage from both apical and basal cell layers quantified by plating with bacterial host.
Permeation of phages throughout the eukaryotic cell. The mechanism of phage access to Eukaryotic cells remains ambiguous (22, 24, 29). […] Inhibition of phage transcytosis was reported as the percentage of phages transcytosed across inhibitor-treated cells, compared to cells treated with a solvent control (FIG. 3A and Table S3).
Before this invention, the mechanism of phage transcytosis across eukaryotic cells remained ambiguous, see e.g., Duerkop et al., 2013, Resident viruses and their interactions with the immune system, Nat Immunol 14:654-9; Merril, et al., 1996, Long-circulating bacteriophage as antibacterial agents, Proc Natl Acad Sci 93:3188-3192; Aronow, et al., 1964, Electron microscopy of in vitro endocytosis of T2 phage by cells from rabbit perioneal exudate, J Exp Med 120. […] Inhibition of phage transcytosis was reported as the percentage of phages transcytosed across inhibitor-treated cells compared to cells treated with a solvent control (FIG. 13).

For test [2], the system named is MDCK cells. As to the kind of experiment: Fluorescence-positive MDCK cells after treatment with labeled T4 phages. The class given is cell-based, canine. As to conditions: n=1008, mean. The source says:
T4 phage were fluorescently labeled and visualized within MDCK cells (FIG. 4A-C).

Each structure is given as a SMILES string.

For the compound `CO/C1=C\C(C)=C\[C@@H](C)[C@@H](O)[C@@H](C)C/C(C)=C/C=C/[C@H](OC)[C@@H]([C@@H](C)[C@@H](O)[C@H](C)[C@@]2(O)C[C@@H](O)[C@H](C)[C@@H](C(C)C)O2)OC1=O` [Bafilomycin], in the test on MDCK cells [1], the “Inhibitor transcytosis Median ± s.d.” value is recorded as 1 ± .19 × 10^5 and the “effect of inhibitor on phage transcytosis” value (“effect of inhibitor” below) is “no significant treatment effects”.
On to `C[C@H]1CCC/C=C/[C@@H]2C[C@H](O)C[C@H]2[C@H](O)/C=C/C(=O)O1` [Brefeldin A], for which, in the test with MDCK cells [1], the “Inhibitor transcytosis Median ± s.d.” value is on record as 2.3 ± 2.2 × 10^4 and the “effect of inhibitor” value was “significant but incomplete inhibition of transcytosis”. Moreover, the “phages transcytosed compared to a solvent control” value in the test on MDCK cells [1] (T4 phages across inhibitor-treated MDCK cells) is given as 38.5%. The “proportion of fluorescence-positive cells treated with BFA and labeled T4 phages” value in the test with MDCK cells [2] came to 9.98%.
Take `CCN(CC)CCCC(C)Nc1ccnc2cc(Cl)ccc12` (centres unmarked) [Chloroquine]: in the test with MDCK cells [1], the “Inhibitor transcytosis Median ± s.d.” value is 5.3 ± 2.7 × 10^4 and the “effect of inhibitor” value is recorded as “no significant treatment effects”.
Turning to `NCCCCCCNS(=O)(=O)c1cccc2c(Cl)cccc12` [W-7], in the test on MDCK cells [1], the “Inhibitor transcytosis Median ± s.d.” value was 8.2 ± 1.1 × 10^4 and the “effect of inhibitor” value was “no significant treatment effects”.
With `COC[C@H]1OC(=O)c2coc3c2[C@@]1(C)C1=C(C3=O)[C@@H]2CCC(=O)[C@@]2(C)C[C@H]1OC(C)=O` [Wortmannin], the “Inhibitor transcytosis Median ± s.d.” value in the test on MDCK cells [1] is 8.1 ± 2.9 × 10^4.

Values taken from patent publication US20210062160A1, “THERAPEUTIC AND IMMUNOMODULATORY BACTERIOPHAGE FORMULATIONS AND METHODS FOR MAKING AND USING THEM” (priority 2017, published 2021).
